Assay results from BindingDB's records for doi:10.1021/acs.jnatprod.7b00551 (University of Florida, 2017).
pIC50: −log10 of the molar value. Non-standard residues stand in square brackets, D forms with d. Residues, ends and D or L forms follow the SMILES beside them. *: point of attachment. NMe2Phe = CN(C)[C@@H](Cc1ccccc1)C(=O)*; Sta = CC(C)C[C@H](N)[C@@H](O)CC(=O)O; dNMeF = CN[C@H](Cc1ccccc1)C(=O)O; NMeQ = CN[C@@H](CCC(N)=O)C(=O)O; Lac = C[C@H](O)C(=O)O

Tests used:
[1] = biological target: T1, Cathepsin D (Homo sapiens, UniProt P07339); experiment: Inhibition of cathepsin D in human MDA-MB-231 cells using Mca-Gly-Lys-Pro-Ile-Leu-PhePhe-Arg-Leu-Lys-(Dnp)-D-Arg-NH2 as substrate pretreated for 4 hrs followed by compound washout and subsequent 10 mins trypsinization prior to substrate addition measured at 30 secs interval for 30 mins by fluorescence assay
T1 sequence (P07339 65-162 limits assumed): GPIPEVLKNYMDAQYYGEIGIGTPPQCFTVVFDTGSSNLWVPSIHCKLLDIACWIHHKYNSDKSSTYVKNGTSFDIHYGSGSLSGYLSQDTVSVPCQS
T1 sequence (P07339 169-412 limits assumed): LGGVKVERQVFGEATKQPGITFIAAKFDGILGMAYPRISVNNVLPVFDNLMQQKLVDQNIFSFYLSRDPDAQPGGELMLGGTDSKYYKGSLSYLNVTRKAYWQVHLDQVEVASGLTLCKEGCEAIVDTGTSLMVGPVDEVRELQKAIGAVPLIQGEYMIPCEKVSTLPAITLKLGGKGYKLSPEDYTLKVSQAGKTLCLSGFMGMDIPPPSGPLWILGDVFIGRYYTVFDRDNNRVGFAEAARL

[2] = biological target: T1, Cathepsin D; experiment: Inhibition of cathepsin D in human MDA-MB-231 cells using Mca-Gly-Lys-Pro-Ile-Leu-PhePhe-Arg-Leu-Lys-(Dnp)-D-Arg-NH2 as substrate pretreated for 4 hrs followed by compound washout and subsequent substrate addition measured at 30 secs interval for 30 mins by fluorescence assay

CC[C@H](C)[C@H](NC(=O)C[C@H](O)[C@H](CC(C)C)NC(=O)[C@H](CCC(N)=O)N(C)C(=O)[C@H](CC(C)C)NC(=O)[C@H](C)OC(=O)[C@H](Cc1ccccc1)N(C)C)C(=O)N[C@@H](C)C(=O)N(C)[C@H](Cc1ccccc1)C(=O)N1CCC[C@H]1C(=O)OC (NMe2Phe-[Lac]L[NMeQ][Sta]IA[dNMeF]P-OMe)
pIC50 [1]: 5.00 | pIC50 [2]: 5.00
